This is an account of results in patent US20240300881A1, “PROCESS FOR PREPARATION OF LITHIUM L-THREONATE AND USE THEREOF” (XIXIOXOME BIOTHERAPEUTICS, priority 2023, published 2024).

One data set deals with schizoaffective disorder. The note with it: cited from earlier work.
For the next data set, the system named is AAD. Particulars: low-dose; cited from earlier work.
Data set [1] is described as follows: precipitation of lithium hydroxide from solution at different pH. The format is physicochemical. The source says:
L-threonic acid was selected as the ligand for lithium ion, because L-threonic acid can accelerate the absorption of the ion.

The conditions of data set [2]: stability in high thermal condition.

Each structure is given as a SMILES string.

On to `NC(=O)N1c2ccccc2C=Cc2ccccc21` [carbamazepine], for which, in the data set with schizoaffective disorder, the “prophylactic efficacy in maintenance treatment” value is given as “equipotent alternatives”.

On to `O=C([O-])[O-].[Li+].[Li+]` [lithium carbonate], for which, in the data set on AAD, the “efficacy in treating agitation” value was “not efficacious” and the global clinical improvement result is recorded as “associated with global clinical improvement”.

Turning to `O=C([O-])[C@H](O)[C@@H](O)CO.[Li+]` [lithium L-threonate], the “precipitate of lithium hydroxide” value in data set [1] (basic condition) and in data set [1] (small intestine (pH˜7)) was “no precipitate of lithium hydroxide” each time. This compound also yielded a temperature of decomposition in data set [2] above 300 °C. Further, the “dissolution in alcohol and ether” value (alcohol and ether) is “no dissolution in alcohol and ether”. For the same compound, the dissolution in water entry (water) is given as “dissolution in water”.
